In ChEMBL document CHEMBL1133484 (Bioorg Med Chem Lett, 2000) one finds IC50 and Ki data, which are given here for 18 compounds.

Starred links: 1 amine or outer side, 2 acyl side, 3 side chain; linkers in the order of their positions; H or OH if unused. Non-standard residues stand in square brackets, D forms with d. Residues, ends and D or L forms follow the SMILES beside them. *: point of attachment. X2 = O=C([C@@H]1C[C@@H](CCCc2ccccc2)CN1[*:1])[*:2]; X3 = O=C([C@@H]1C[C@@H](CCc2ccccc2)CN1[*:1])[*:2]; Pro(4R-Bn) = O=C(O)[C@@H]1C[C@@H](Cc2ccccc2)CN1; CH2(1-naphthyl) = c1ccc2c(C*)cccc2c1; mXylylene = c1cc(C[*:1])cc(C[*:2])c1; oXylylene = c1ccc(C[*:2])c(C[*:1])c1; Glutaryl = O=C(CCCC(=O)[*:2])[*:1]; Hyp = O=C(O)[C@@H]1C[C@@H](O)CN1; Chg = N[C@H](C(=O)O)C1CCCCC1; Nva = CCC[C@H](N)C(=O)O; X1 = c1ccc2cc(C*)ccc2c1; Ac3c = NC1(C(=O)O)CC1; Meb = Cc1ccc(C*)cc1; CF3 = FC(F)(F)*

For experiment [1], the target named is T1, NS3 (Hepatitis C virus, UniProt A3EZJ3). Briefly: Inhibitory activity against NS3 protease complexed with NS4A cofactor peptide (NS3-4A pep). Details: species or system Hepacivirus hominis.
T1 sequence (A3EZJ3 whole entry): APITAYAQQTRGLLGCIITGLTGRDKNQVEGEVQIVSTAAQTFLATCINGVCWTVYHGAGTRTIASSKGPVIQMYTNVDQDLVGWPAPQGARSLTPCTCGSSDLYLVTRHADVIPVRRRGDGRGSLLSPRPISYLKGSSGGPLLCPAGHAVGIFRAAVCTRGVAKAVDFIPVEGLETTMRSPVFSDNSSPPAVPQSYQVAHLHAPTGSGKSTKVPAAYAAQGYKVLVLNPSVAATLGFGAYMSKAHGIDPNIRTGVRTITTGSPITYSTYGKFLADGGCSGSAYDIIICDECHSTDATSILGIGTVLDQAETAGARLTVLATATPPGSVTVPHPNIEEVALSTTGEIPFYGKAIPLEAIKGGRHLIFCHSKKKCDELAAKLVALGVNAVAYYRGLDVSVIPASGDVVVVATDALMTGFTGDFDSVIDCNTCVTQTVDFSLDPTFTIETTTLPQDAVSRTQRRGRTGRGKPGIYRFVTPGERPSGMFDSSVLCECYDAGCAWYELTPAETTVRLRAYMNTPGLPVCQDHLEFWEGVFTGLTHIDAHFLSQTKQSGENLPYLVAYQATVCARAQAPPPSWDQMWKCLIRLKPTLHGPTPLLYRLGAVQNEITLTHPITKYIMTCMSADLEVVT
A further experiment concerns the target T2, Neutrophil elastase (Homo sapiens, UniProt P08246).
T2 sequence (P08246 whole entry): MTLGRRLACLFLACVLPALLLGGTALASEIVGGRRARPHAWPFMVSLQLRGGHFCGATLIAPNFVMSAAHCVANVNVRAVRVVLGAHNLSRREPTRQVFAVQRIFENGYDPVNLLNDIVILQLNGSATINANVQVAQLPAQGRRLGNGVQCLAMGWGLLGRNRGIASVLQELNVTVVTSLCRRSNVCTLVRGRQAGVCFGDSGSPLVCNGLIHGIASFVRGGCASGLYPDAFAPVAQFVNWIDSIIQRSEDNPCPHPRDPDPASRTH
Briefly: Compound was evaluated for its inhibitory activity against human leukocyte elastase (HLE).

The target in the next experiment is Cathepsin B (Homo sapiens, UniProt P07858). Briefly: Compound was evaluated for its inhibitory activity against cathepsin B.
Experiment [2] has as its target T1, NS3. Briefly: Compound was evaluated for its binding affinity against NS3 protease complexed with NS4A cofactor peptide (NS3-4A pep). Also on record: species or system Hepacivirus hominis.
The target in another experiment is Chymotrypsinogen B (Homo sapiens, UniProt P17538). Briefly: Compound was evaluated for its inhibitory activity against Chymotrypsinogen.
Sequence of Chymotrypsinogen B (P17538 34-164 limits assumed, other chains not shown): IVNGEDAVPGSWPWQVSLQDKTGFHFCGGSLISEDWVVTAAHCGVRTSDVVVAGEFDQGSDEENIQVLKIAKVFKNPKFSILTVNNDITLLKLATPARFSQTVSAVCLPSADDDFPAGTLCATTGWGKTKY
Sequence of Chymotrypsinogen B (P17538 167-263 limits assumed, other chains not shown): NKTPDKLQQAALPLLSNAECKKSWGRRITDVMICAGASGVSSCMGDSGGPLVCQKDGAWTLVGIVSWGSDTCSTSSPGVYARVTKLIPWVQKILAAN

A word on the IC50: it is the concentration at which inhibition is half-maximal. A lower IC50 goes with inhibition by little substance. The compound `CCC[C@H](NC(=O)[C@@H]1CCCN1C(=O)[C@@H](NC(=O)[C@@H](NC(=O)[C@@H](CCC(=O)O)NC(=O)[C@H](CC(=O)O)NC(C)=O)[C@@H](C)CC)C(C)C)C(=O)O` (Ac-D[dE]IVP[Nva]-OH) gave an IC50 at NS3 [1] of 7.5 µM.
On the same count and under the same terms, in the case of `CCC[C@H](NC(=O)[C@@H]1C[C@@H](OCc2cccc(C)c2)CN1C(=O)[C@@H](NC(=O)[C@@H](NC(=O)[C@H](CC(=O)O)NC(=O)[C@H](CC(=O)O)NC(C)=O)[C@@H](C)CC)C(C)C)C(=O)O` (Ac-DDIV[Hyp](mXylylene)[Nva]-OH) it was 3.5 µM; in that of `CCC[C@H](NC(=O)[C@@H]1C[C@@H](CCCc2ccccc2)CN1C(=O)[C@@H](NC(=O)[C@@H](NC(=O)[C@H](CC(=O)O)NC(=O)[C@H](CC(=O)O)NC(C)=O)[C@@H](C)CC)C(C)C)C(=O)O` (Ac-DDIV[X2][Nva]-OH), 3.3 µM; in that of `CCC[C@H](NC(=O)[C@@H]1CCCN1C(=O)[C@@H](NC(=O)[C@@H](NC(=O)[C@@H](CC(=O)O)NC(=O)[C@H](CC(=O)O)NC(C)=O)[C@@H](C)CC)C(C)C)C(=O)C(F)(F)F` (Ac-D[dD]IVP[Nva]-CF3), 22 µM.
`CCC[C@H](NC(=O)[C@@H]1CCCN1C(=O)[C@@H](NC(=O)[C@@H](NC(=O)[C@H](CC(=O)O)NC(=O)[C@H](CC(=O)O)NC(C)=O)[C@@H](C)CC)C(C)C)C(=O)O` (Ac-DDIVP[Nva]-OH): on NS3 [1], the half-maximal inhibitory concentration (IC50) worked out at 150 µM.
With `CC(=O)N[C@H](C(=O)N[C@H](C(=O)N1C[C@H](OCc2cccc3ccccc23)C[C@H]1C(=O)NC1(C(=O)O)CC1)C(C)C)C1CCCCC1` (Ac-[Chg]V[Hyp](CH2(1-naphthyl))[Ac3c]-OH), the results for the IC50 against Neutrophil elastase and against NS3 [1] were above 600 µM and 3.5 µM, respectively.
`CCC[C@H](NC(=O)[C@@H]1C[C@@H](OCc2ccc(C)cc2)CN1C(=O)[C@@H](NC(=O)[C@@H](NC(=O)[C@H](CC(=O)O)NC(=O)[C@H](CC(=O)O)NC(C)=O)[C@@H](C)CC)C(C)C)C(=O)O` (Ac-DDIV[Hyp](Meb)[Nva]-OH) had an IC50 against NS3 [1] of 2.5 µM.
Same read-out and setting: in the case of `CCC[C@H](NC(=O)[C@@H]1C[C@@H](OCc2ccc3ccccc3c2)CN1C(=O)[C@@H](NC(=O)[C@@H](NC(=O)[C@H](CC(=O)O)NC(=O)[C@H](CC(=O)O)NC(C)=O)[C@@H](C)CC)C(C)C)C(=O)O` (Ac-DDIV[Hyp](X1)[Nva]-OH) it was 0.71 µM.
Consider `CCC[C@H](NC(=O)[C@@H]1C[C@@H](CCc2ccccc2)CN1C(=O)[C@@H](NC(=O)[C@@H](NC(=O)[C@H](CC(=O)O)NC(=O)[C@H](CC(=O)O)NC(C)=O)[C@@H](C)CC)C(C)C)C(=O)O` (Ac-DDIV[X3][Nva]-OH), for which 10 µM corresponded to half-maximal inhibition at NS3 [1] (IC50).
Still for that read-out and setting: next, `CCC[C@H](NC(=O)[C@@H]1CCCN1C(=O)[C@@H](NC(=O)[C@@H](NC(=O)[C@@H](CC(=O)O)NC(=O)[C@H](CC(=O)O)NC(C)=O)[C@@H](C)CC)C(C)C)C(=O)O` (Ac-D[dD]IVP[Nva]-OH): 17 µM; `CCC[C@H](NC(=O)[C@@H]1C[C@@H](O)CN1C(=O)[C@@H](NC(=O)[C@@H](NC(=O)[C@H](CC(=O)O)NC(=O)[C@H](CC(=O)O)NC(C)=O)[C@@H](C)CC)C(C)C)C(=O)O` (Ac-DDIV[Hyp][Nva]-OH): 93 µM; `CCC[C@H](NC(=O)[C@@H]1C[C@@H](Cc2ccccc2)CN1C(=O)[C@@H](NC(=O)[C@@H](NC(=O)[C@H](CC(=O)O)NC(=O)[C@H](CC(=O)O)NC(C)=O)[C@@H](C)CC)C(C)C)C(=O)O` (Ac-DDIV[Pro(4R-Bn)][Nva]-OH): 60 µM.
On the same count and under the same terms, in the case of `CCC[C@H](NC(=O)[C@@H]1C[C@@H](OCc2ccccc2C)CN1C(=O)[C@@H](NC(=O)[C@@H](NC(=O)[C@H](CC(=O)O)NC(=O)[C@H](CC(=O)O)NC(C)=O)[C@@H](C)CC)C(C)C)C(=O)O` (Ac-DDIV[Hyp](oXylylene)[Nva]-OH) it was 6.8 µM.
On the same count and under the same terms, in the case of `CCC[C@H](NC(=O)[C@@H]1C[C@@H](OCc2cccc3ccccc23)CN1C(=O)[C@@H](NC(=O)[C@@H](NC(=O)[C@H](CC(=O)O)NC(=O)[C@H](CC(=O)O)NC(C)=O)[C@@H](C)CC)C(C)C)C(=O)O` (Ac-DDIV[Hyp](CH2(1-naphthyl))[Nva]-OH) it was 0.39 µM; in that of `CC[C@H](C)[C@H](NC(=O)[C@H](CC(=O)O)NC(=O)[C@H](CC(=O)O)NC(C)=O)C(=O)N[C@H](C(=O)N1CCC[C@H]1C(=O)NC1(C(=O)O)CC1)C(C)C` (Ac-DDIVP[Ac3c]-OH), 54 µM; in that of `CC(=O)N[C@@H](CC(=O)O)C(=O)N[C@H](CCC(=O)O)C(=O)N[C@H](C(=O)N[C@H](C(=O)N1C[C@H](OCc2cccc3ccccc23)C[C@H]1C(=O)NC1(C(=O)O)CC1)C(C)C)C1CCCCC1` (Ac-D[dE][Chg]V[Hyp](CH2(1-naphthyl))[Ac3c]-OH), 0.013 µM.
Broadly, the Ki is a dissociation constant, usually derived from enzyme kinetics or from competition with a known ligand. Take `CCC[C@H](NC(=O)[C@@H]1C[C@@H](OCc2ccc3ccccc3c2)CN1C(=O)[C@@H](NC(=O)[C@@H](NC(=O)[C@@H](CCC(=O)O)NC(=O)[C@H](CC(=O)O)NC(C)=O)C1CCCCC1)C(C)C)C(=O)O` (Ac-D[dE][Chg]V[Hyp](X1)[Nva]-OH): the IC50 is above 300 µM on Cathepsin B, above 300 µM at Neutrophil elastase, 0.027 µM at NS3 [1] and above 300 µM on Chymotrypsinogen B. Further, the affinity at NS3 [2], expressed as Ki, was 0.003 µM.
On to `CC(C)[C@H](NC(=O)[C@@H](NC(=O)CCCC(=O)O)C1CCCCC1)C(=O)N1C[C@H](OCc2cccc3ccccc23)C[C@H]1C(=O)NC1(C(=O)O)CC1` (Glutaryl-[Chg]V[Hyp](CH2(1-naphthyl))[Ac3c]-OH), for which the midpoint of inhibition on NS3 [1], the IC50, lay at 0.9 µM.
